# Laboratory results published in patent publication US10414797B2, “Gelatinase inhibitors and use thereof” (Iproteos S.L, priority 2015, dated 2019).
# Where a SMILES comes first, the peptide text is derived from it. [ ]: non-standard residue; d: D form. The star is where a group is joined. ξ: configuration not given here. Benzoyl(3,5-F2) = O=C(c1cc(F)cc(F)c1)*; NMeIle(3ξ) = CCC(C)[C@H](NC)C(=O)O; NMeF = CN[C@@H](Cc1ccccc1)C(=O)O; Dab = NCC[C@H](N)C(=O)O; NHOH = ON*
# Experiments:
# Type in all cases: biochemical
# MMP-2 = MMP-2 (Homo sapiens (Human), UniProt P08253); assay: MMP-2 inhibition assay (fluorimetric, DQ gelatin substrate); details: recombinant MMP-2 (CHO cells) 85 ng/mL, DQ gelatin 50 μg/mL, 2 hours at room temperature, pH 7.6
# Experimental: (§1) All the experiments were done in 1× reaction buffer, which was obtained from a 10× reaction buffer solution. The content of the 10× reaction buffer was: 50 mL of 0.5 M Tris-HCl, 1.5 M NaCl, 50 mM CaCl2 and 2 mM sodium azide at pH 7.6. To obtain the 1× reaction buffer 4 mL of the 10× reaction buffer were diluted in 36 mL of H2O.
# Recombinant MMP-2 expressed in Chinese hamster ovary (CHO) cells was obtained from Merck-Millipore (catalog number PF023-5UG). DQ gelatin from pig skin fluorescein conjugated (MMP-2 substrate) was obtained from Life Technologies (catalog number E12055).
# Preparation of the MMP-2 for the activity assay: MMP-2 was provided as a stock solution (0.1 mg/mL). The enzyme was diluted in 1× reaction buffer to a final concentration of 5 μg/mL.
# Preparation of the DQ gelatin (substrate) solution for the activity assay: the solid form of the substrate was dissolved in water in order to obtain a stock solution of 1 mg/mL.
# Procedure: The enzymatic assays were performed in 96-well microtiter plate, which allowed simultaneous monitoring of multiple reactions. For each reaction, 86.3 μL of 1× reaction buffer (pH 7.6), 1.7 μL of MMP-2 (final concentration 85 ng/mL) and 2 μL of the corresponding new compound were added to each well. A stock solution of new compound was prepared in DMSO (100 mM), and dilutions were prepared from this stock solution with DMSO. Finally, to the mixture contained in each well 10 μL of the substrate were added (final concentration 50 μg/mL). The reaction was incubated for 2 hours at room temperature in an orbital shaker (100 rpm).
# The inhibitory activity of the new compound was measured fluorimetrically. The excitation and emission wavelengths were 483 and 525 nm, respectively.
# Inhibitory activity at several concentration points (ranging from 100 pM to 200 μM MMP) were measured for each compound. The inhibitory activity on MMP-2 and MMP-9 was calculated according to eq 1. For each new compound, the fluorescence in the presence (a) and in the absence (b) of the corresponding MMP was measured. The maximum fluorescence (0% inhibitory activity) was obtained from a sample of the corresponding MMP in the absence of inhibitory compounds. To estimate the inhibitory potency of the novel compounds, activities were plotted against the log concentration of the compound, adjusting to a sigmoid curve using GraphPad Prism software, and the IC50 value, defined as the concentration of compound required to inhibit 50% of the corresponding MMP activity, was determined from resulting curve.
# a corresponds to fluorescence intensity in the presence of substrate+test compound+MMP
# b corresponds to the fluorescence intensity in the presence of substrate+tested compound
# c corresponds to the fluorescence intensity in the presence of substrate+MMP
# d corresponds to the fluorescence intensity of the presence of substrate
# MMP-3 = MMP-3 (Homo sapiens (Human), UniProt P08254); assay: MMP-3 inhibition assay (fluorogenic peptide substrate); details: recombinant MMP-3 7.7 nM, Mca-RPKPVE-Nval-WRK(Dnp)-NH2 10 μM, 4 hours at room temperature; tested at 1, 10, 100 and 200 μM
# Experimental: as §1
# Recombinant MMP-3 expressed in E. Coli was obtained from Merck-Millipore (catalog number 44217). Mca-RPKPVE-Nval-WRK(Dnp)-NH2 (fluorogenic peptide substrate) was obtained from R&D Systems (catalog number ES002).
# Preparation of the MMP-3 for the activity assay: MMP-3 was provided as a stock solution (0.1 mg/mL). The enzyme was diluted in water to a final concentration of 0.005 mg/mL.
# MMP-3 peptide substrate was provided as a stock solution in DMSO (4.5 mM). For the assay, the substrate was diluted 1× reaction buffer to a concentration of 100 μM.
# Procedure: The enzymatic assays were performed in 96-well microtiter plate, which allowed simultaneous monitoring of multiple reactions. For each reaction, 84.6 μL of 1× reaction buffer (pH 7.6), 3.4 μL of MMP-3 (final concentration 7.7 nM) and 2 μL of the corresponding new compound were added to each well. A stock solution of new compound was prepared in DMSO (100 mM), and dilutions were prepared from this stock solution with DMSO. Finally, to the mixture contained in each well 10 μL of the substrate were added (final concentration 10 μM). The reaction was incubated for 4 hours at room temperature in an orbital shaker (90 rpm).
# (§2) The inhibitory activity of the new compound was measured fluorimetrically. The excitation and emission wavelengths were 320 and 405 nm, respectively.
# (§3) Inhibitory activity at several concentration points (1, 10, 100 and 200 μM) were measured for each compound. The inhibitory activity on MMP-1, MMP-3 and MMP-7 was calculated according to eq 1 and The IC50 value was calculated as explained above for MMP-2 and MMP-9.
# MMP-1 = MMP-1 (Homo sapiens (Human), UniProt P03956); assay: MMP-1 inhibition assay (fluorogenic peptide substrate); details: recombinant MMP-1 5.52 nM, Mca-PLGL-Dpa-AR-NH2 10 μM, 4 hours at room temperature; tested at 1, 10, 100 and 200 μM
# Experimental: as §1
# Recombinant MMP-1 expressed in E. Coli was obtained from Enzo Life Sciences (catalog number BML-SE180). Mca-PLGL-Dpa-AR-NH2 (fluorogenic peptide substrate) was obtained from R&D Systems (catalog number ES001).
# Preparation of the MMP-1 for the activity assay: MMP-1 was provided as a stock solution (0.55 mg/mL). The enzyme was diluted in 1× reaction buffer to a final concentration of 276 nM.
# MMP-1 peptide substrate was provided as a stock solution in DMSO (6 mM). For the assay, the substrate was diluted 1× reaction buffer to a concentration of 100 μM.
# Procedure: The enzymatic assays were performed in 96-well microtiter plate, which allowed simultaneous monitoring of multiple reactions. For each reaction, 86 μL of 1× reaction buffer (pH 7.6), 2 μL of MMP-1 (final concentration 5.52 nM) and 2 μL of the corresponding new compound were added to each well. A stock solution of the new compound was prepared in DMSO (100 mM), and dilutions were prepared from this stock solution with DMSO. Finally, to the mixture contained in each well 10 μL of the substrate were added (final concentration 10 μM). The reaction was incubated for 4 hours at room temperature in an orbital shaker (100 rpm).
# as §2, §3
# Sequence of MMP-2 (P08253 110-660): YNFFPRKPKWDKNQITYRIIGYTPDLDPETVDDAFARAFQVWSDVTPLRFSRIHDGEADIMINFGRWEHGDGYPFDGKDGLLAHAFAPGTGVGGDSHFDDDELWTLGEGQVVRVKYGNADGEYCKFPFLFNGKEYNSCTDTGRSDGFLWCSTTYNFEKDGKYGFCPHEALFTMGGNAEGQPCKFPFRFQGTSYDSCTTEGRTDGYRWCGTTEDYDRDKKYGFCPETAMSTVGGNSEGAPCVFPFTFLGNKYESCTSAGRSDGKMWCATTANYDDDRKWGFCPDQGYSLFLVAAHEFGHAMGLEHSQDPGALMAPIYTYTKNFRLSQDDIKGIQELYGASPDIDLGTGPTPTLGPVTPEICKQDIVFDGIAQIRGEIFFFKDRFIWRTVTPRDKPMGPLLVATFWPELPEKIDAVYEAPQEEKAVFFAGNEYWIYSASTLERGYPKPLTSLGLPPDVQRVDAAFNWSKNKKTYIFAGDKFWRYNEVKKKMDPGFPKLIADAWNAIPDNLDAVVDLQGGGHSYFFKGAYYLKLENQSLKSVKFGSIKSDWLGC
# Sequence of MMP-3 (P08254 100-477): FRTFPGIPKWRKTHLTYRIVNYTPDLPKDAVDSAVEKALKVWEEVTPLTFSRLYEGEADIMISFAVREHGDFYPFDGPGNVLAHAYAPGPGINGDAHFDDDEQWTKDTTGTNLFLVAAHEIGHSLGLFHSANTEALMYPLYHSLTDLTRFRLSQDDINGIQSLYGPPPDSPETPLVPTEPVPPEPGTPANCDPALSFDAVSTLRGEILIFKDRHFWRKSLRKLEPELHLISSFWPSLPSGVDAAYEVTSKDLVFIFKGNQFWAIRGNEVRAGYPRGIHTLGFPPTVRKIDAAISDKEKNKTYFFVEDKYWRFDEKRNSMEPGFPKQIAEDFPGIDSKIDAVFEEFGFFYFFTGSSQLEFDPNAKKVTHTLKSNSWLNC
# Sequence of MMP-1 (P03956 100-269): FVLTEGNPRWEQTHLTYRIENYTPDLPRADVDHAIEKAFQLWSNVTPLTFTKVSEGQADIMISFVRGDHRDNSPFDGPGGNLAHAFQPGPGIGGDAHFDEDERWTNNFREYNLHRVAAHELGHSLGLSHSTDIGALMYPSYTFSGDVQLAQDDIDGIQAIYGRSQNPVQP
Structure (SMILES),IC50 (MMP-2),IC50 (MMP-3),MMP-1 IC50 (MMP-1),IC50 (MMP-1)
"CCC(C)[C@@H](C(=O)N[C@@H](CCNC(=O)c1ccc(F)cc1)C(=O)NO)N(C)C(=O)[C@@H]1CCCN1C(C)=O (stereo partly drawn) [Example 1, (2S)-1-acetyl-N-[(1S)-1-[[(1S)-3-[(4-fluorobenzoyl)amino]-1-(hydroxycarbamoyl)propyl]carbamoyl]-2-methyl-butyl]-N-methyl-pyrrolidine-2-carboxamide]",202 nM,30.1 µM,<1000 nM,–
"CCCCCC(=O)N1CCC[C@H]1C(=O)N(C)[C@H](C(=O)N[C@@H](CCNC(=O)c1cc(F)cc(F)c1)C(=O)NO)C(C)CC (stereo partly drawn) [Example 3, (2S)—N-[(1S)-1-[[(1S)-3-[(3,5-difluorobenzoyl)amino]-1-(hydroxycarbamoyl)propyl]carbamoyl]-2-methyl-butyl]-1-hexanoyl-N-methyl-pyrrolidine-2-carboxamide]",81 nM,25.4 µM,–,6.82 µM
"CCC(C)[C@@H](C(=O)N[C@@H](CCNC(=O)c1cc(F)cc(F)c1)C(=O)NO)N(C)C(=O)[C@@H]1CCCN1C(=O)[C@H](Cc1ccccc1)N(C)C(C)=O (stereo partly drawn) [Example 11, (2 S)-1-[(2S)-2-[acetyl(methyl)amino]-3-phenyl-propanoyl]-N-[(1S)-1-[[(1S)-3-[(3,5-difluorobenzoyl)amino]-1-(hydroxycarbamoyl)propyl]carbamoyl]-2-methyl-butyl]-N-methyl-pyrrolidine-2-carboxamide] (Ac-[NMeF]P[NMeIle(3ξ)][Dab](Benzoyl(3,5-F2))-{NHOH})",174 nM,200 µM,–,9.13 µM
"CCCC(CCC)C(=O)N1CCC[C@H]1C(=O)N(C)[C@H](C(=O)N[C@@H](CCNC(=O)c1cc(F)cc(F)c1)C(=O)NO)C(C)CC (stereo partly drawn) [Example 8, (2S)—N-[(1S)-1-[[(1S)-3-[(3,5-difluorobenzoyl)amino]-1-(hydroxycarbamoyl)propyl]carbamoyl]-2-methyl-butyl]-N-methyl-1-(2-propylpentanoyl)pyrrolidine-2-carboxamide]",974 nM,3.81 µM,–,3.65 µM

# The remaining lines, values ahead:
IC50 (MMP-2),IC50 (MMP-3),MMP-1 IC50 (MMP-1),IC50 (MMP-1),Structure (SMILES)
1150 nM,200 µM,–,200 µM,"CCC(C)[C@@H](C(=O)N[C@@H](CCNC(=O)c1cc(F)cc(F)c1)C(=O)NO)N(C)C(=O)[C@@H]1CCCN1C(=O)CCN(C)C(C)=O (stereo partly drawn) [Example 13, (2S)-1-[3-[acetyl(methyl)amino]propanoyl]-N-[(1S)-1-[[(1S)-3-[(3,5-difluorobenzoyl)amino]-1-(hydroxycarbamoyl)propyl]carbamoyl]-2-methyl-butyl]-N-methyl-pyrrolidine-2-carboxamide]"
400 nM,53.4 µM,–,25.6 µM,"CCCCCCCC(=O)N1CCC[C@H]1C(=O)N(C)[C@H](C(=O)N[C@@H](CCNC(=O)c1cc(F)cc(F)c1)C(=O)NO)C(C)CC (stereo partly drawn) [Example 6, (2S)—N-[(1S)-1-[[(1S)-3-[(3,5-difluorobenzoyl)amino]-1-(hydroxycarbamoyl)propyl]carbamoyl]-2-methyl-butyl]-N-methyl-1-octanoyl-pyrrolidine-2-carboxamide]"
110000 nM,3.1 µM,–,6.1 µM,"CC(=O)N1CCC[C@H]1C(=O)N[C@@H](CCC(N)=O)C(=O)N[C@@H](Cc1c[nH]c2ccccc12)C(=O)NO [Example C17, (2S)-2-[[(2S)-1-acetylpyrrolidine-2-carbonyl)amino]-N-[(1S)-2-(hydroxyamino)-1-(1H-indol-3-ylmethyl)-2-oxo-ethyl]pentanediamide, reference compound] (Ac-Pro-Gln-Trp-{NHOH})"
